The target in one assay is Prothrombin (Homo sapiens, UniProt P00734). Kind of assay: The compound was evaluated for inhibitory activity against Thrombin.
In a further assay the target is Coagulation factor X (Homo sapiens, UniProt P00742). Briefly: Inhibition of Factor Xa.
The target of another assay is Serine protease 1 (Homo sapiens, UniProt P07477). Briefly: The compound was evaluated for inhibitory activity against Trypsin.
For assay [1], the system named is Rattus norvegicus. Kind of assay: Percent inhibition for thrombus formation after intravenous infusion at 5 mg/kg/h in a rat vena cava thrombosis model. Type of assay: functional.
Assay [2] is filed under the species Rattus norvegicus. Kind of assay: Compound was tested for inhibitory dose which produced 50% inhibition of thrombus formation in a rat vena cava thrombosis model. In kind it is functional.
The subject of assay [3] is Rattus norvegicus. Briefly: Percent inhibition for thrombus formation after intravenous infusion at 1 mg/kg/h in a rat vena cava thrombosis model. Type of assay: functional.

Molecules are shown by their SMILES.

Sequence of Serine protease 1 (P07477 whole entry, the tested form may be a part): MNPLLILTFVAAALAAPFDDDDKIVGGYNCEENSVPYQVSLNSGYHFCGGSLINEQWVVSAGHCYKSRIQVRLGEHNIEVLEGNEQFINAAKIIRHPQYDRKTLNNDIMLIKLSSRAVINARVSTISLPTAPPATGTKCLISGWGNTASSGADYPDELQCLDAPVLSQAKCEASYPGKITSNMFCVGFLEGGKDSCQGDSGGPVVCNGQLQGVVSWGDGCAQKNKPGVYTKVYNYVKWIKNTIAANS
Sequence of Coagulation factor X (P00742 41-179 limits assumed): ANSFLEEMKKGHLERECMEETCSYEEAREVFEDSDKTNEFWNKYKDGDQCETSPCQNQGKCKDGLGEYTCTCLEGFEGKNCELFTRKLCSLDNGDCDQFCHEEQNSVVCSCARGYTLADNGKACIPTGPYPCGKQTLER
Sequence of Coagulation factor X (P00742 235-488 limits assumed): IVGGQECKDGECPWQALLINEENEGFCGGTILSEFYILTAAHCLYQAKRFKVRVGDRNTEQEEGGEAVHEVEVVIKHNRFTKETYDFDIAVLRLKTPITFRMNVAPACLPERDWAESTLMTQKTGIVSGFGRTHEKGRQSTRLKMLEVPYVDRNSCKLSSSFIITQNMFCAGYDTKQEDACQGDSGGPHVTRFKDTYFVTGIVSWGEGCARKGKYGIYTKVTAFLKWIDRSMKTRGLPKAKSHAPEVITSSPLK

The term Ki denotes a dissociation constant, usually derived from enzyme kinetics or from competition with a known ligand. A higher Ki goes with lower affinity. Turning to `N=C(N)c1ccc(NC(=O)CC2CC(c3ccc(C(=N)N)cc3)=NO2)cc1` (stereo unspecified), the figures for the inhibition constant Ki on Prothrombin and on Coagulation factor X were 2200 nM and 1700 nM, respectively.

On to `COC(=O)CC1(C(=O)Nc2cccc(C(=N)N)c2)CC(c2cccc(C(=N)N)c2)=NO1` (stereo unspecified), for which the results for the Ki at Prothrombin, on Serine protease 1 and on Coagulation factor X were 11800 nM, 230 nM and 800 nM, respectively.

With `N=C(N)c1ccc(NC(=O)CC2CC(c3cccc(C(=N)N)c3)=NO2)cc1` (stereo unspecified), the results for the Ki on Prothrombin and at Coagulation factor X were 11100 nM and 1400 nM, respectively.

What is called inhibition in vivo is the change of the read-out against control, counted positive when it falls. Higher therefore signals a strong effect. Regarding `COC(=O)CC1(C(=O)Nc2ccc(C(=N)N)cc2)CC(c2cccc(C(=N)N)c2)=NO1` (stereo unspecified), the Ki on Prothrombin was 16000 nM; on Serine protease 1, 480 nM. In the assay with Rattus norvegicus [1], the inhibition in vivo at 5 mg/kg/h was found to be 80%. In the assay listed under Rattus norvegicus [2], the ID50 came out at 1.6 mg/kg/h. Besides, the inhibition in vivo at 1 mg/kg/h in the assay with Rattus norvegicus [3] worked out at 40%.

As to `N=C(N)c1cccc(NC(=O)CC2CC(c3cccc(C(=N)N)c3)=NO2)c1` (stereo unspecified), the values for the Ki at Prothrombin, at Serine protease 1 and on Coagulation factor X were 11200 nM, over 1200 nM and 1800 nM, respectively.

With `N=C(N)c1ccc(C2=NOC(CC(=O)Nc3cccc(C(=N)N)c3)C2)cc1` (stereo unspecified), the values for the inhibitory constant (Ki) on Prothrombin, on Serine protease 1 and on Coagulation factor X were 2200 nM, 510 nM and 870 nM, respectively.

Take `COC(=O)CNC(=O)CC1(C(=O)Nc2ccc(C(=N)N)cc2)CC(c2cccc(C(=N)N)c2)=NO1` (stereo unspecified): the figures for the Ki at Prothrombin, at Serine protease 1 and on Coagulation factor X were 3100 nM, 420 nM and 18 nM, respectively.

Consider `N=C(N)c1ccc(NC(=O)C2CC(c3cccc(C(=N)N)c3)=NO2)cc1` (stereo unspecified), for which the figures for the Ki at Prothrombin, at Serine protease 1 and on Coagulation factor X were 16000 nM, 700 nM and 270 nM, respectively.

With `N=C(N)c1ccc(NC(=O)C2(CC(=O)O)CC(c3cccc(C(=N)N)c3)=NO2)cc1` (stereo unspecified), the Ki on Prothrombin was over 21000 nM; at Serine protease 1, over 1200 nM; on Coagulation factor X, 143 nM.

On to `COC(=O)CC1(C(=O)Nc2cccc(C(=N)N)c2)CC(c2ccc(C(=N)N)cc2)=NO1` (stereo unspecified), for which the Ki at Prothrombin is 14100 nM; on Serine protease 1, over 1200 nM; on Coagulation factor X, 117 nM.

In the case of `N=C(N)c1ccc(/C=C2/CCCC/C(=C\c3ccc(C(=N)N)cc3)C2=O)cc1`, on Coagulation factor X, the Ki was found to be 13 nM.

The values above are taken from ChEMBL document CHEMBL1129218, “Bisbenzamidine isoxazoline derivatives as factor Xa inhibitors” (Bioorg Med Chem Lett, 1997).
